Measurements published in ChEMBL document CHEMBL1212841, “Mycenaaurin A, an antibacterial polyene pigment from the fruiting bodies of Mycena aurantiomarginata” (2010).

System: Bacillus pumilus
Experiment: Antimicrobial activity Bacillus pumilus at 0.5 umol/disk by disk diffusion method
Assay type: functional

CC(=O)N[C@@H](CCO[C@H](C)C/C=C/CC[C@@H](O)C/C=C/C=C/C=C/C=C/C=C/C=C/c1cc(O)c(CC[C@H](N)C(=O)O)c(=O)o1)C(=O)O [MYCENAAURIN A]
inhibition zone (IZ): 2.5 cm
